One compound from ChEMBL document CHEMBL1134127, “A mechanism-based affinity-labeling agent for possible use in isolating N-acetylglucosaminidase” (Bioorg Med Chem Lett, 2001) can be followed below.

This assay in a line: Inhibitory activity against O-linked N-acetyl-glucosaminidase (O-GlcNAc'ase). More on the design: species or system Rattus norvegicus.

On to `CC(=O)NC1[C@@H](O)[C@@H](O)C(CO)O[C@H]1SC1CC(=O)N(c2ccc(C(=O)c3ccccc3)cc2)C1=O` (stereo partly specified), for which the affinity corresponds to a Ki of 50 µM.
